For this assay, the system named is MCF7. Nature of the assay: Inhibitory concentration against proliferation of MCF-7 (ER Positive) breast cancer cells. It counts as functional, cell-based. The settings on record: Homo sapiens.
Regarding `COC(=O)[C@]12CCC(C)(C)CC1C1C(=O)C=C3[C@@]4(C)C=C(C#N)C(=O)[C@@](C)(COC(=O)CCCCCNC(=O)CCCC[C@@H]5SC[C@@H]6NC(=O)N[C@@H]65)[C@@H]4CC[C@@]3(C)[C@]1(C)CC2` (stereo partly specified), the IC50 came out at 0.55 µM.

On to `COC(=O)[C@]12CCC(C)(C)CC1C1C(=O)C=C3[C@@]4(C)C=C(C#N)C(=O)[C@@](C)(CO)[C@@H]4CC[C@@]3(C)[C@]1(C)CC2` (stereo partly specified), for which half-maximal inhibition (IC50) required 0.08 µM.

`CC1(C)CC[C@]2(C(=O)NCCCCCCNC(=O)CCCCC3SC[C@@H]4NC(=O)N[C@H]34)CC[C@]3(C)C(C(=O)C=C4[C@@]5(C)C=C(C#N)C(=O)C(C)(C)[C@@H]5CC[C@]43C)C2C1` (stereo partly specified) displayed an IC50 of 3.31 µM.

`CC1(C)CC[C@]2(C(=O)NCCCC(=O)NCCCCCCNC(=O)CCCCC3SC[C@@H]4NC(=O)N[C@H]34)CC[C@]3(C)C(C(=O)C=C4[C@@]5(C)C=C(C#N)C(=O)C(C)(C)[C@@H]5CC[C@]43C)C2C1` (stereo partly specified) showed an IC50 of 5.26 µM.

Molecule `COC(=O)[C@]12CCC(C)(C)C[C@H]1[C@H]1C(=O)C=C3[C@@]4(C)C=C(C#N)C(=O)C(C)(C)[C@@H]4CC[C@@]3(C)[C@]1(C)CC2` [BARDOXOLONE METHYL] displayed an IC50 of 0.05 µM.

For the molecule `CC1(C)CC[C@]2(C(=O)O)CC[C@]3(C)[C@H](C(=O)C=C4[C@@]5(C)C=C(C#N)C(=O)C(C)(C)[C@@H]5CC[C@]43C)[C@@H]2C1` [BARDOXOLONE], the IC50 stood at 0.16 µM.

Usually IC50 stands for the concentration at which inhibition is half-maximal. A low value points to greater potency in that assay.

These data come from ChEMBL document CHEMBL1138765, “Design, synthesis, and biological evaluation of biotin conjugates of 2-cyano-3,12-dioxooleana-1,9(11)-dien-28-oic acid for the isolation of the protein targets” (J Med Chem, 2004).
